In brackets after ≈: the same amount, converted by molar mass.
Tests used:
[1] = Kinetic solubility in SGF, FaSSIF, FeSSIF and pure water (HPLC); details: for solubility kinetic at 1 h / solubility kinetic at 4 h / solubility kinetic at 24 h: thermodynamic from solid
Experimental: (§1) Suspend Form J (from example 1), amorphous (from example 2) and Form A (from WO2020234779A1) in Simulated Gastric Fluid (SGF), Fasted-State Simulated Intestinal Fluid (FaSSIF), Fed-State Simulated Intestinal Fluid (FeSSIF) and pure water, respectively. After equilibrium for 1 hour, 8 hours and 24 hours, filter the solution for HPLC test.

[2] = Hygroscopicity by DVS test, with XRPD before and after; assay type: physicochemical; details: for Water uptake at 25° C., 80% / Water uptake at 25° C., 90%: DVS; for Water uptake at 25° C., 80%: 80% relative humidity; for Water uptake at 25° C., 90%: 90% relative humidity
Experimental: The dynamic vapor sorption diagrams of the present disclosure were collected on Intrinsic-type and Intrinsic Plus-type dynamic vapor sorption instruments of SMS company. The process parameters of the dynamic vapor sorption test of the present disclosure were as follows:
Protection gas and its flow rate: N2, 200 mL/minute
Minimum dm/dt equilibration time: 10 minutes
Maximum Equilibration Time: 180 minutes
Relative humidity range: 0% RH-95% RH-0% RH, 50% RH-95% RH-0% RH
Relative humidity gradient: 10% (0% RH-90% RH-0% RH), 5% (90% RH-95% RH and 95% RH-90% RH).
Weigh approximately 10 mg of a form of formula (I) (i.e., Form A from WO2020234779A1), 10 mg of Form J and 10 mg of amorphous for DVS test, and then collect the obtained solid for XRPD analysis. The DVS plots of Form A, Form J and amorphous were shown in FIGS. 6, 8 and 10, and the XRPD overlay were shown in
Following is Description and definition of hygroscopicity (see appendix XIX J, guidance for hygroscopicity evaluation of Pharmacopoeia of the People's Republic of China 2010): […]

[3] = Intrinsic dissolution of compressed thin tablet; assay type: physicochemical; details: pH 1.5 aqueous HCl solution
Experimental: Approximately 100 mg of each of Form J (from example 1) and Form A (from WO2020234779A1) were compressed by intrinsic dissolution mold under 10 kN pressure to obtain a thin tablet with surface area of 1.0 cm2, respectively. Dissolution experiment was performed on the tablets, and the corresponding result was summarized in Table 4, dissolution profile was shown in FIG. 16.

[4] = Solid-state stability (XRPD and HPLC purity); assay type: physicochemical; details: for Purity: HPLC; for Solid form: XRPD
Experimental: Weigh appropriate amount of Form J (from example 1) into a 5-mL glass vial, and then seal the vial with parafilm (pricked 5 pinholes). Place the vial under 25° C./60% RH and 40° C./75% RH for some time, and then separate several solids out for XRPD and HPLC purity test.

[5] = Crystal habit by PLM; assay type: physicochemical; details: compared with Form A
Experimental: About 10 mg of Form J (from example 1) and Form A (from WO2020234779A1) were weighed and placed onto a glass slide, respectively, the solid were dispersed with several vacuum pump oil, and then covered with a cover glass. The samples were observed using PLM.

[6] = physchem; details: thermodynamic from solid
Experimental: as §1

[7] = Sticking propensity (powder adhering to punch tip); assay type: physicochemical; details: 6 mm circle punches, 10 kN pressure, compared with Form A
Experimental: Approximately 30 mg of each of Form J (from example 1) and Form A (from WO2020234779A1) were compressed by 6 mm circle punches under 10 kN pressure, respectively. The loading mass (ML) and tablet mass (MT) were recorded, and mass percentage of powder adhering to punch tip (ma) was calculated by the equation of ma=(ML−MT)/ML×100%.

[8] = PSD test; assay type: physicochemical; details: Isopar G (0.2% lecithin), before and after sonication for 30 s, compared with Form A
Experimental: Approximately 10-30 mg of each of Form J (from example 1) and Form A (from WO2020234779A1) were added into 5 mL Isopar G (0.2% lecithin) to form a suspension, respectively. The suspension was loaded into SDC system for data collection, which was collected before and after sonication for 30 s.

[9] = would covert to Form A under certain conditions; cited from earlier work

C=CC(=O)N(C)CCOc1c(N)ncnc1-c1cc(F)cc(NC(=O)c2ccc(C3CC3)cc2F)c1C [Amorphous, N-(3-(6-amino-5-(2-(N-methylacrylamido)ethoxy)pyrimidin-4-yl)-5-fluoro-2-methylphenyl)-4-cyclopropyl-2-fluorobenzamide]
Kinetic solubility ([1]; FaSSIF, 24 hr): 11 µg/mL | solubility kinetic at 1 h ([1]; Fasted-State Simulated Intestinal Fluid (FaSSIF), fassif, 1 hr): 10 µg/mL (≈ 19.7 µM) | solubility kinetic at 4 h ([1]; Fasted-State Simulated Intestinal Fluid (FaSSIF), fassif, 4 hr): 11 µg/mL (≈ 21.7 µM) | solubility kinetic at 1 h ([1]; Fed-State Simulated Intestinal Fluid (FeSSIF), fessif, 1 hr): 33 µg/mL (≈ 65 µM) | solubility kinetic at 4 h ([1]; Fed-State Simulated Intestinal Fluid (FeSSIF), fessif, 4 hr): 34 µg/mL (≈ 67 µM) | solubility kinetic at 24 h ([1]; Fed-State Simulated Intestinal Fluid (FeSSIF), fessif, 24 hr): 33 µg/mL (≈ 65 µM) | Kinetic solubility ([1]; SGF, 1 hr): 1400 µg/mL | solubility kinetic at 4 h ([1]; Simulated Gastric Fluid (SGF), simulated gastric fluid, SGF, 4 hr): 1000 µg/mL (≈ 1970 µM) | solubility kinetic at 24 h ([1]; Simulated Gastric Fluid (SGF), simulated gastric fluid, SGF, 24 hr): 950 µg/mL (≈ 1870 µM) | solubility kinetic at 1 h ([1]; pure water, water, H2O, 1 hr): 4.6 µg/mL (≈ 9.06 µM) | solubility kinetic at 4 h ([1]; pure water, water, H2O, 4 hr): 4.4 µg/mL (≈ 8.67 µM) | solubility kinetic at 24 h ([1]; pure water, water, H2O, 24 hr): 4.3 µg/mL (≈ 8.47 µM) | Water uptake at 25° C., 80% [2]: 3.37% | Water uptake at 25° C., 90% [2]: 4.14% | Hygroscopicity ([2]; class per Pharmacopoeia of the People's Republic of China 2010): Hygroscopic (increase in mass is less than 15 percent and equal to or greater than 2 percent)

C=CC(=O)N(C)CCOc1c(N)ncnc1-c1cc(F)cc(NC(=O)c2ccc(C3CC3)cc2F)c1C [Form A, N-(3-(6-amino-5-(2-(N-methylacrylamido)ethoxy)pyrimidin-4-yl)-5-fluoro-2-methylphenyl)-4-cyclopropyl-2-fluorobenzamide, reference compound]
Kinetic solubility ([1]; FaSSIF, 1 hr): 6.1 µg/mL | Kinetic solubility ([1]; FaSSIF, 4 hr): 6.5 µg/mL | Kinetic solubility ([1]; FaSSIF, 24 hr): 5 µg/mL | Kinetic solubility ([1]; FeSSIF, 1 hr): 20 µg/mL | Kinetic solubility ([1]; FeSSIF, 4 hr): 22 µg/mL | Kinetic solubility ([1]; FeSSIF, 24 hr): 22 µg/mL | Kinetic solubility ([1]; H2O, 1 hr): 3.7 µg/mL | Kinetic solubility ([1]; H2O, 4 hr): 3.9 µg/mL | Kinetic solubility ([1]; H2O, 24 hr): 2.9 µg/mL | Kinetic solubility ([1]; SGF, 1 hr): 690 µg/mL | Kinetic solubility ([1]; SGF, 4 hr): 710 µg/mL | Kinetic solubility ([1]; SGF, 24 hr): 700 µg/mL | Cumulative dissolution amount ([3]; 5 mins): 0.5 mg | Cumulative dissolution amount ([3]; 10 mins): 0.9 mg | Cumulative dissolution amount ([3]; 15 mins): 1.3 mg | Cumulative dissolution amount ([3]; 20 mins): 1.6 mg | Cumulative dissolution amount ([3]; 25 mins): 2.1 mg | Cumulative dissolution amount ([3]; 30 mins): 2.7 mg | Cumulative dissolution amount ([3]; 60 mins): 3.2 mg | Cumulative dissolution amount ([3]; 75 mins): 4.3 mg | Water uptake at 25° C., 80% [2]: 0.54% | Water uptake at 25° C., 90% [2]: 0.68%

C=CC(=O)N(C)CCOc1c(N)ncnc1-c1cc(F)cc(NC(=O)c2ccc(C3CC3)cc2F)c1C [Form J, N-(3-(6-amino-5-(2-(N-methylacrylamido)ethoxy)pyrimidin-4-yl)-5-fluoro-2-methylphenyl)-4-cyclopropyl-2-fluorobenzamide]
Form change and HPLC purity decrease on storage ([4]; 25° C./60% RH and 40° C./75% RH for 8 weeks): no obvious form change and HPLC purity decrease | Purity/initial Purity ([4]; 25° C./60% RH, 1 week): 99.6% | Purity ([4]; 25° C./60% RH, 1 week): 99.09 area % | Solid form ([4]; 25° C./60% RH, 1 week): Form J | Purity/initial Purity ([4]; 25° C./60% RH, 2 weeks): 99.0% | Purity ([4]; 25° C./60% RH, 2 weeks): 98.48 area % | Solid form ([4]; 25° C./60% RH, 2 weeks): Form J | Purity/initial Purity ([4]; 25° C./60% RH, 4 weeks): 99.2% | Purity ([4]; 25° C./60% RH, 4 weeks): 98.71 area % | Solid form ([4]; 25° C./60% RH, 4 weeks): Form J | Purity/initial Purity ([4]; 25° C./60% RH, 8 weeks): 98.7% | Purity ([4]; 25° C./60% RH, 8 weeks): 97.94 area % | Solid form ([4]; 25° C./60% RH, 8 weeks): Form J | Purity/initial Purity ([4]; 40° C./75% RH, 1 week): 99.6% | Purity ([4]; 40° C./75% RH, 1 week): 99.05 area % | Solid form ([4]; 40° C./75% RH, 1 week): Form J | Purity/initial Purity ([4]; 40° C./75% RH, 2 weeks): 98.9% | Purity ([4]; 40° C./75% RH, 2 weeks): 98.39 area % | Solid form ([4]; 40° C./75% RH, 2 weeks): Form J | Purity/initial Purity ([4]; 40° C./75% RH, 4 weeks): 99.0% | Purity ([4]; 40° C./75% RH, 4 weeks): 98.42 area % | Solid form ([4]; 40° C./75% RH, 4 weeks): Form J | Purity/initial Purity ([4]; 40° C./75% RH, 8 weeks): 98.0% | Purity ([4]; 40° C./75% RH, 8 weeks): 97.32 area % | Solid form ([4]; 40° C./75% RH, 8 weeks): Form J | Crystal habit [5]: better crystal habit than Form A | Dissolution compared with Form A [3]: larger total dissolution amount and higher cumulative dissolution rate than Form A | Cumulative dissolution amount ([3]; 5 mins): 1.1 mg | Cumulative dissolution amount ([3]; 10 mins): 2.5 mg | Cumulative dissolution amount ([3]; 15 mins): 2.9 mg | Cumulative dissolution amount ([3]; 20 mins): 3.3 mg | Cumulative dissolution amount ([3]; 25 mins): 3.9 mg | Cumulative dissolution amount ([3]; 30 mins): 4.7 mg | Cumulative dissolution amount ([3]; 60 mins): 5.6 mg | Cumulative dissolution amount ([3]; 75 mins): 7.2 mg | solubility kinetic at 1 h ([6]; fassif): 24 µg/mL (≈ 47.3 µM) | solubility kinetic at 4 h ([6]; fassif): 14 µg/mL (≈ 27.6 µM) | solubility kinetic at 24 h ([6]; fassif): 16 µg/mL (≈ 31.5 µM) | solubility kinetic at 1 h ([6]; fessif): 130 µg/mL (≈ 256 µM) | solubility kinetic at 4 h ([6]; fessif): 53 µg/mL (≈ 104 µM) | solubility kinetic at 24 h ([6]; fessif): 57 µg/mL (≈ 112 µM) | solubility kinetic at 1 h ([6]; simulated gastric fluid): 2400 µg/mL (≈ 4730 µM) | solubility kinetic at 4 h ([6]; simulated gastric fluid): 2700 µg/mL (≈ 5320 µM) | solubility kinetic at 24 h ([6]; simulated gastric fluid): 2600 µg/mL (≈ 5120 µM) | solubility kinetic at 1 h ([6]; water): 12 µg/mL (≈ 23.6 µM) | solubility kinetic at 4 h ([6]; water): 15 µg/mL (≈ 29.6 µM) | solubility kinetic at 24 h ([6]; water): 19 µg/mL (≈ 37.4 µM) | Water uptake at 25° C., 80% [2]: 0.53% | Water uptake at 25° C., 90% [2]: 0.60% | Sticking propensity [7]: lower sticking propensity than Form A | Particle size distribution [8]: more uniform particle size distribution than Form A

C=CC(=O)N(C)CCOc1c(N)ncnc1-c1cc(F)cc(NC(=O)c2ccc(C3CC3)cc2F)c1C [Form B, N-(3-(6-amino-5-(2-(N-methylacrylamido)ethoxy)pyrimidin-4-yl)-5-fluoro-2-methylphenyl)-4-cyclopropyl-2-fluorobenzamide]
Thermodynamic stability [9]: less thermodynamically stable
